In ChEMBL document CHEMBL1151133, “Plant metabolites. Structure and in vitro antiviral activity of quinovic acid glycosides from Uncaria tomentosa and Guettarda platypoda” (J Nat Prod, 1989):
Converted amounts (≈) assume the structure as drawn.

Tests used:
[1] = test system: Vesicular stomatitis Indiana virus; test: Antiviral activity against Vesicular stomatitis Indiana virus infected in golden hamster CER cells assessed as reduction in virus plaque formation after 36 to 48 hrs; assay type: functional
[2] = Cytotoxicity against golden hamster CER cells after 2 days by neutral red uptake assay; assay type: cell-based, Mesocricetus auratus; conditions: read-out: TC50
[3] = Cytotoxicity against human HeLa cells assessed as maximum non-toxic drug level after 2 days by neutral red uptake assay; assay type: cell-based; conditions: read-out: MNCC
rhinovirus A1B [4] = test: Antiviral activity against HRV1B infected in human HeLa cells assessed as reduction in virus-induced cytopathic effect at 30 ug/ml; assay type: functional, Human rhinovirus 1B; set-up: scale not given: the % may be the effect or the level left
rhinovirus A1B [5] = test: Antiviral activity against HRV1B infected in human HeLa cells assessed as reduction in virus-induced cytopathic effect at 20 ug/ml; assay type: functional, Human rhinovirus 1B; set-up: scale not given: the % may be the effect or the level left

SMILES: C[C@H]1[C@H](C)CC[C@]2(C(=O)O)CC[C@]3(C(=O)O[C@@H]4O[C@H](CO)[C@@H](O)[C@H](O)[C@H]4O)C(=CC[C@@H]4[C@@]5(C)CC[C@H](O[C@@H]6O[C@H](CO)[C@@H](O)[C@H](O)[C@H]6O)C(C)(C)[C@@H]5CC[C@]43C)[C@H]12
- MIC50 [1]: 87 µM (≈ 70.6 µg/mL)
- CC50 at 48 h [2]: 150 µg/mL (≈ 185 µM)

SMILES: C[C@H]1[C@H](C)CC[C@]2(C(=O)O)CC[C@]3(C(=O)O)C(=CC[C@@H]4[C@@]5(C)CC[C@H](O[C@@H]6O[C@H](C)[C@H](O)[C@H](O[C@@H]7O[C@H](CO)[C@@H](O)[C@H](O)[C@H]7O)[C@H]6O)C(C)(C)[C@@H]5CC[C@]43C)[C@H]12
- MIC50 [1]: 25 µM (≈ 19.9 µg/mL)
- CC50 at 48 h [2]: 100 µg/mL (≈ 126 µM)

SMILES: C[C@H]1[C@H](C)CC[C@]2(C(=O)O[C@@H]3O[C@H](CO)[C@@H](O)[C@H](O)[C@H]3O)CC[C@]3(C(=O)O)C(=CC[C@@H]4[C@@]5(C)CC[C@H](O[C@@H]6O[C@H](C)[C@H](O)[C@H](O[C@@H]7O[C@H](CO)[C@@H](O)[C@H](O)[C@H]7O)[C@H]6O)C(C)(C)[C@@H]5CC[C@]43C)[C@H]12
- MIC50 [1]: 42 µM (≈ 40.2 µg/mL)
- CC50 at 48 h [2]: 80 µg/mL (≈ 83.6 µM)

SMILES: C[C@H]1[C@H](C)CC[C@]2(C(=O)O[C@@H]3O[C@H](CO)[C@@H](O)[C@H](O)[C@H]3O)CC[C@]3(C(=O)O)C(=CC[C@@H]4[C@@]5(C)CC[C@H](O[C@@H]6O[C@H](C)[C@@H](O)[C@H](O)[C@H]6O)C(C)(C)[C@@H]5CC[C@]43C)[C@H]12
- MIC50 [1]: 28 µM (≈ 22.3 µg/mL)
- CC50 at 48 h [2]: 80 µg/mL (≈ 101 µM)

SMILES: C[C@H]1[C@H](C)CC[C@]2(C(=O)O)CC[C@]3(C(=O)O[C@@H]4O[C@H](CO)[C@@H](O)[C@H](O)[C@H]4O)C(=CC[C@@H]4[C@@]5(C)CC[C@H](O[C@@H]6O[C@H](C)[C@H](O)[C@H](O[C@@H]7O[C@H](CO)[C@@H](O)[C@H](O)[C@H]7O)[C@H]6O)C(C)(C)[C@@H]5CC[C@]43C)[C@H]12
- MIC50 [1]: 63 µM (≈ 60.3 µg/mL)
- CC50 at 48 h [2]: 100 µg/mL (≈ 104 µM)

SMILES: C[C@H]1[C@H](C)CC[C@]2(C(=O)O[C@@H]3O[C@H](CO)[C@@H](O)[C@H](O)[C@H]3O)CC[C@]3(C(=O)O)C(=CC[C@@H]4[C@@]5(C)CC[C@H](O[C@@H]6O[C@H](CO)[C@@H](O)[C@H](O)[C@H]6O)C(C)(C)[C@@H]5CC[C@]43C)[C@H]12
- MIC50 [1]: 40 µM (≈ 32.4 µg/mL)
- CC50 at 48 h [2]: 150 µg/mL (≈ 185 µM)
- MNTC at 48 h [3]: 100 µg/mL
- Activity (rhinovirus A1B [4]): 50%
- Activity (rhinovirus A1B [5]): 50%

SMILES: C[C@H]1[C@H](C)CC[C@]2(C(=O)O[C@@H]3O[C@H](CO)[C@@H](O)[C@H](O)[C@H]3O)CC[C@]3(C(=O)O)C(=CC[C@@H]4[C@@]5(C)CC[C@H](O[C@@H]6O[C@H](C)[C@H](O)[C@H](O)[C@H]6O)C(C)(C)[C@@H]5CC[C@]43C)[C@H]12
- MIC50 [1]: 40 µM (≈ 31.8 µg/mL)
- CC50 at 48 h [2]: 80 µg/mL (≈ 101 µM)

SMILES: C[C@H]1[C@H](C)CC[C@]2(C(=O)O)CC[C@]3(C(=O)O)C(=CC[C@@H]4[C@@]5(C)CC[C@H](O[C@@H]6O[C@H](CO)[C@@H](O)[C@H](O)[C@H]6O)C(C)(C)[C@@H]5CC[C@]43C)[C@H]12
- MIC50 [1]: 51 µM (≈ 33.1 µg/mL)
- CC50 at 48 h [2]: 150 µg/mL (≈ 231 µM)
